Experimental data taken from patent US20240342190A1, “METHODS FOR REDUCING ISCHEMIA-REPERFUSION INJURIES” (BioMimetix JV, LLC, priority 2023, published 2024).

What was measured:
[1] = tested on: young male spontaneously hypertensive rats (SHR) subjected to 90 min of MCAO; assay: Experiment 4: stroke outcome in young spontaneously hypertensive rats; assay type: in vivo, rat; details: for Neurologic score: median±IQR
Procedure: (§1) The rats were fasted overnight for glucose control. On the surgery day, they were anesthetized with 5% isoflurane in 30% oxygen balanced with nitrogen. The trachea was orally intubated, and both lungs were mechanically ventilated to maintain normocapnia. Isoflurane was reduced to 1.5% during the surgical procedure. A 22-gauge needle thermistor was percutaneously inserted beneath the temporalis muscle adjacent to the skull. The pericranial temperature was maintained at 37.0° C.±0.2° C. by a surface heat lamp. The tail artery was cannulated with PE 50 tubing (BD Intramedic™ Polyethylene Tubing, Sparks, MD, USA), and arterial blood pressure was continuously monitored. 50 IU of heparin was given via arterial line to prevent intra-arterial thrombosis. Arterial blood samples were collected pre, during, and after ischemia for blood gas, glucose, and hematocrit measurements.
(§2) Ischemic stroke was induced by transiently occluding the middle cerebral artery (MCAO) as previously reported.^23,24 Briefly, a midline cervical incision was made and the right common carotid artery […] was identified. The external and internal carotid arteries were dissected. […] The internal carotid artery (ICA) was dissected distally until the origin of the pterygopalatine artery was visualized. After surgical preparation, a 10 min interval was allowed for physiologic stabilization. […] The common carotid artery was re-opened, and a timer was started as the onset of cerebral ischemia.
(§3) After 90 min of MCAO, the filament was removed and a PE-10 tube (BD Intramedic™ Polyethylene Tubing, Sparks, MD, USA) was inserted into the ICA beyond the origin of the pterygopalatine artery. The vehicle or BMX-001 (30-50 μg/kg) solution (1 μl/g for both solutions, 250 μl for the 250 g rat) was slowly infused for 5 minutes via syringe pump. At the completion of intra-carotid infusion, the PE tube was removed and the ECA stump was permanently ligated. The tail artery catheter was removed and both the neck incision and tail incision were infiltrated with bupivacaine and closed with suture. Isoflurane was discontinued. Rats were disconnected from the ventilator when they attained spontaneous respiration and kept in a recovery cage. The tracheas were extubated after recovery of the righting reflex. They were in an O2 enriched environment (30% O2) for 1 h and then returned to the home cage.
(§4) Post-stroke neurologic deficits were assessed at day 7 and 28 using a standardized neurological scoring system.^27,28 General status, simple motor deficit, complex motor deficit, and sensory deficit were evaluated, including the ability of walking on a beam and climbing on the vertical screen. The total score each animal received was the sum of all four individual scores (0-48, 0=normal and 48=the worst score).
(§5) Upon the completion of functional tests, the animals were weighed, anesthetized with isoflurane, and decapitated. The brains were harvested, frozen at −20° C. in 2-methylbutane on dry ice, and stored in a −80° C. freezer. Serial quadruplicate 20-μm-thick coronal sections were cut using a Leica cryostat and mounted on the slides at 720-μm interval over the rostral-caudal extent of the brain. The sections were dried on a slide heater at 36° C., and stained with hematoxylin and eosin. A section from each […] interval was digitized with a video camera controlled by an image analyzer (MCID, the MicroComputer Imaging Device, Imaging Research Inc, St. Catharines, Ontario, Canada). […] With the observer blinded to the experimental condition, the following regions of interest (ROI) were outlined individually using an operator-controlled cursor, including non-infarcted ipsilateral cerebral cortex, non-infarcted ipsilateral subcortex, contralateral cerebral cortex, and contralateral subcortex. The area in each ROI (mm^2) was determined by automated counting of calibrated pixels and the volume (mm^3) was computed by the known interval between sections over the rostral-caudal extent of brain. […]

[2] = tested on: young male Wistar rats subjected to 90 min of MCAO (ischemic stroke); assay: Experiment 3: duration of BMX-001 treatment and long-term stroke outcome in young male rats; assay type: in vivo, rat; details: for MAP: 10 minutes post-stroke; for Neurologic score: median±IQR; for Body weight: p=0.37; for Total infarct: measured at 28 days, p=0.46
Procedure: as §1, §2, §3, §4, §5

[3] = tested on: young male Wistar rats subjected to 90 min of MCAO (ischemic stroke); assay: Experiment 1: acute stroke outcome after 90 min MCAO, intracarotid BMX-001 then subcutaneous for 7 days; assay type: in vivo, rat
Procedure: as §1, §2, §3, §4, §5

[4] = tested on: aged female Fisher 344 rats subjected to 90 min of MCAO; assay: Experiment 5: stroke outcome in aged female rats; assay type: in vivo, rat; details: for Neurologic score: median±IQR, p<0.001
Procedure: as §1, §2, §3, §4, §5

[5] = tested on: young female Wistar rats subjected to 90 min of MCAO (ischemic stroke); assay: Experiment 2: long-term stroke outcome in young female rats; assay type: in vivo, rat; details: for Neurologic score: median±IQR, p=0.04 vs vehicle
Procedure: as §1, §2, §3, §4
Upon the completion of functional tests, the animals were weighed, anesthetized with isoflurane, and decapitated. The brains were harvested, frozen at −20° C. in 2-methylbutane on dry ice, and stored in a −80° C. freezer. Serial quadruplicate 20-μm-thick coronal sections were cut using a Leica cryostat and mounted on the slides at 720-μm interval over the rostral-caudal extent of the brain. The sections were dried on a slide heater at 36° C., and stained with hematoxylin and eosin. […] The area in each ROI (mm^2) was determined by automated counting of calibrated pixels and the volume (mm^3) was computed by the known interval between sections over the rostral-caudal extent of brain. […]

[6] = Experiment 8: interaction of BMX-001 with t-PA (blood clot dissolution); parameters: species or system rat; details: blood clot dissolution, t-PA vs t-PA plus BMX-001
Procedure: Fresh arterial blood samples were collected from young male rats and distributed into 21 pre-weighed centrifuge tubes. After sitting at 37° C. for 3 hours, the blood clots were formed. The supernatant was removed from these tubes and then the tubes with blood clots were weighed. The weight of the blood clot was calculated (=the tube with blood clot-pre-weighed tube). Then, 1 ml saline, t-PA (1 mg/ml) or t-PA (1 mg/ml) plus BMX-001 (50 μg/ml) were added (n=7 for each group) and tubes placed in 37° C. dry incubator for 3 hours. The liquids were then removed from the tubes. The tubes with remaining blood clots were weighed again. The percentage of blood clot dissolved by t-PA was calculated.

[7] = printed 'on day 28 in BMX-001 group'

CCCCOCC[n+]1ccccc1C1=C2C=CC3=[N+]2[Mn]24[n]5c1ccc5C(c1cccc[n+]1CCOCCCC)=C1C=CC(=[N+]12)C(c1cccc[n+]1CCOCCCC)=c1ccc([n]14)=C3c1cccc[n+]1CCOCCCC [BMX-001, MnTnBuOE-2-PyP^5+]
MAP ([1]; 10 minutes post-stroke, SHR rats): 83 ± 11 mmHg
Infarct volume (FIG. 4, Panel C), in words ([1]; 28 days): no intra-group difference
Subcortex infarct volume ([1]; 28 days, p=0.14): 51±23 mm^3
Total infarct volume ([1]; 28 days, p=0.21): 179±51 mm^3
Cortex infarct volume ([1]; 28 days, p=0.37): 128±37 mm^3
Neurologic score ([1]; day 7, p=0.05 vs vehicle): 14±8
Neurologic score ([1]; day 28, p=0.018 vs vehicle): 9.5±6.25
Neurological deficits (FIG. 4, Panel B), in words ([1]; day 28 post-stroke): significantly improved
Rats survived for 28 days ([1]; of n=15, three BMX-001 rats died at 8, 9 and 10 days after stroke): 12
MAP ([2]; group BMX-001 for 7 days): 67 ± 5 mmHg
MAP ([2]; group BMX-001 for 28 days): 71 ± 6 mmHg
Neurological deficits (FIG. 3, Panel B), in words ([2]; both day 7 and day 28 post-stroke): significantly improved
Neurologic score ([2]; day 7 post-stroke, 7 days of BMX-001 group): 10±8
Neurologic score ([2]; day 7 post-stroke, 28 days of BMX-001 group): 11±8
Body weight ([2]; day 7 post-stroke, printed 'on day 7 in BMX-001 group'): 276±46 grams
Infarct volume (FIG. 3, Panel C), in words ([2]; day 28): no intra-group difference
Neurologic score ([2]; day 28 post-stroke, 7 days of BMX-001): 6±5
Neurologic score ([2]; day 28 post-stroke, 28 days of BMX-001): 6±4
Total infarct ([2]; 7 days of BMX-001 group): 131±66 mm^3
Total infarct [2, 7]: 112±64 mm^3
Body weight [2, 7]: 280±33 grams
Perioperative blood pressure (FIG. 1, Panel A), in words ([3]; 5 min vs 45 min post-treatment): lower blood pressure
Perioperative blood pressure ([3]; 10 minutes post-ischemia, after 30 μg/kg intracarotid BMX-001, p=0.04 vs vehicle): 75±4 mmHg
Body weight ([3]; 24 hours post-stroke): 252±9 grams
Post-stroke body weight recovery (FIG. 1, Panel B), in words ([3]; body weight at 7 Days vs 24 hours, p=0.02): promoted post-stroke body weight recovery
Infarct volume (FIG. 1, Panel D), in words ([3]; day 7 post-stroke): significantly improved
Neurologic scores (FIG. 1, Panel C), in words ([3]; day 7 post-stroke): significantly improved
Body weight ([3]; day 7 post-stroke, p=0.02 vs 24 hours): 279±9 grams
Subcortex infarct ([3]; day 7 post-stroke, p=0.02 vs vehicle): 38.964 ±8.892 mm^3
Total infarct ([3]; day 7 post-stroke, p=0.04 vs vehicle): 89.097±48.424 mm^3
Cortex infarct ([3]; day 7 post-stroke, p=0.07 vs vehicle): 49.864±42.899 mm^3
Neurologic score ([3]; post-stroke day 7, score 0-48 (0=normal), median±IQR, p<0.01 vs vehicle): 4±3.5
MAP ([4]; 10 minutes post-stroke, aged female Fisher 344 rats): 90 ± 13 mmHg
Infarct volume (FIG. 5, Panel C), in words ([4]; 28 days after stroke): significantly reduced infarct volume
Reduction of infarct volume ([4]; 28 days after stroke, vs vehicle): 60%
Subcortex infarct volume ([4]; 28 days, p=0.0010): 10±12 mm^3
Total infarct volume ([4]; 28 days, p=0.0037 vs vehicle): 31±41 mm^3
Cortex infarct volume ([4]; 28 days, p=0.0122 vs vehicle): 21±32 mm^3
Neurologic score ([4]; day 7): 4±4.75
Neurologic functions (FIG. 5, Panel B), in words ([4]; day 7 and 28 post-stroke): significantly attenuated neurologic deficits
Body weight ([4]; day 7 post-stroke): 233±19 grams
Body weight loss from the baseline body weight ([4]; day 7 post-stroke): 8 grams
Neurologic score ([4]; day 28): 4±4.75
Rats died at post-stroke day 2 due to large infarct ([4]; of n=17): one
Neurologic score ([5]; 7 days post-stroke): 11±7
Neurologic score ([5]; 28 days post-stroke): 7±6
Infarct volume ([5]; 28 days post-stroke, p=0.38 vs vehicle): 157.378 ±63.699 mm^3
Neurologic score (FIG. 2, Panel A), in words ([5]; day 7 and day 28 compared to the vehicle group): better neurologic score
Infarct volumes (FIG. 2, Panel B), in words ([5]; day 28, no intragroup difference was detected): smaller
Interaction of BMX-001 with t-PA, in words [6]: does not React with t-PA
